Laboratory results taken from patent publication US6331555A, “Treatment of platelet derived growth factor related disorders such as cancers” (priority 1999, dated 2001).

These compounds were tested on C6 cells (assay: C6 SRB growth assay). Settings: Rattus norvegicus, C6; at 25 μM.
Type: cell-based, rat

In the case of `Cc1noc(C)c1C(=O)NCc1ccc(C(F)(F)F)cc1` [Compound P22, N-4-trifluoromethlybenzy 3,5-dimethylisoxazole-4-carboxamide], the inhibition at 25 µM is reported as ~10%.

Same assay, conditions: Rattus norvegicus, C6; read-out: C6 SRB IC50

Compared with `N#CC(C(=O)N1CCOCC1)C(=S)Nc1ccccc1Cl` (centres unmarked) [Compound P19, N-2-chlorophenyl (2-cyano-2-N-morpholinocarbonyl) thioacetamide], `CC(O)=C(C#N)C(=O)NCc1ccc(C(F)(F)F)cc1` [Compound P24, 1-trifluorometnlybenzylaminocarbonly-1-cyano-2-hydroxy propene] is lower in IC50: > 50 µM for the first, 14 µM for the second.

Compared with `Cc1noc(C)c1C(=O)NCc1ccc(C(F)(F)F)cc1` [Compound P22, N-4-trifluoromethlybenzy 3,5-dimethylisoxazole-4-carboxamide], `Cc1oncc1C(=O)NCc1ccc(C(F)(F)F)cc1` [Compound P23] is lower in IC50: > 25 µM for the first, 18 µM for the second.

Each compound was assayed against PDGFR (Homo sapiens, UniProt P09619) (assay: PDGF-stimulated receptor phosphorylation in U1242 cells, ELISA). Settings: not given.
PDGFR, sequence (P09619 33-1106): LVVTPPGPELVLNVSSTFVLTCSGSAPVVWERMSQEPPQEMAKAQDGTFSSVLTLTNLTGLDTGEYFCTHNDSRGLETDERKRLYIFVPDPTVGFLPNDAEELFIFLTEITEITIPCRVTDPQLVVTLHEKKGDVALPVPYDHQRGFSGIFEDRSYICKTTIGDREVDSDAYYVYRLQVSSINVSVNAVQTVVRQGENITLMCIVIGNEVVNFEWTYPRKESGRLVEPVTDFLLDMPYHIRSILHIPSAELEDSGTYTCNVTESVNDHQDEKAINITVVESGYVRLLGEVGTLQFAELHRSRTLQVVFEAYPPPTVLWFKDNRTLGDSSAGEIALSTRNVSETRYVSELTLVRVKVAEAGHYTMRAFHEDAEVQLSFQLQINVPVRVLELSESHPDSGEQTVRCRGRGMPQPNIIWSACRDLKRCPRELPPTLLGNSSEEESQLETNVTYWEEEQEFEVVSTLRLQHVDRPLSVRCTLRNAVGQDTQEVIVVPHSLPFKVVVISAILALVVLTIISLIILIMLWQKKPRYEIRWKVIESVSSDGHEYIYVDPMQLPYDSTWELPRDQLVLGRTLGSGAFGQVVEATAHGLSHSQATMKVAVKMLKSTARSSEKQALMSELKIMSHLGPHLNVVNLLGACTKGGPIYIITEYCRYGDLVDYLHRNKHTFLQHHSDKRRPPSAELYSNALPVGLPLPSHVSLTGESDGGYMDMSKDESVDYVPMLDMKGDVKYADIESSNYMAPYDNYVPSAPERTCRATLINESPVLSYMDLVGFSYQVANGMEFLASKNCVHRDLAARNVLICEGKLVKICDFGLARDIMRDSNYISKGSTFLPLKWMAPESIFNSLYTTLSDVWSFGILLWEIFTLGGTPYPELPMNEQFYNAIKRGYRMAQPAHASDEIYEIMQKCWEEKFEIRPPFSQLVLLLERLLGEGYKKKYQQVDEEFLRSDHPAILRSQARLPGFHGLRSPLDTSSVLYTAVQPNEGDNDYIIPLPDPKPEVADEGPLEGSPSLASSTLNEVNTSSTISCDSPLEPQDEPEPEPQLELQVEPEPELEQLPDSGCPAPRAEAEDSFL
Type: cell-based
Design: U1242 (PDGF-β receptor); host or cells: U1242 MG glioma cells
Experimental: For ELISA assays, cells were grown to 80-90% confluency in growth medium and seeded in 96-well tissue culture plates in 0.5% serum at 25,000 to 30,000 cells per well. After overnight incubation in 0.5% serum-containingmedium, cells were changed to serum-free medium and treated with test compound for 2 hr in a 5% CO2, 37° C. incubator. Cells were then stimulated with ligand for 5-10 min followed by lysis with HNTG (20 mM Hepes, 150 mM NaCl, 10% glycerol, 5 mM EDTA, 5 mM Na3 VO4 0.2% Triton X-100, and 2 mM NaPyr). […] Lysates were incubated with shaking for 1 hr at room temperature. The plates were washed with TBST four times and then incubated with polyclonol anti-phosphotyrosine antibody at room temperature for 30 min. Excess anti-phosphotyrosine antibody was removed by rinsing the plate with TBST four times. Goat anti-rabbit IgG antibody was added to the ELISA plate for 30 min at room temperature followed by rinsing with TBST four more times.
U1242 MG cells were plated in 96-well plates at a concentration of 5×10^4 cells/well in cultured media containing 0.5% FBS. The cells were incubated for 24 hours. The cells were then treated with a particular compound for 2 hours followed by the addition of 100 ng/ml PDGF-BB and incubation for 10 minutes.
Cells were lysed in 0.2 M Hepes, 0.15 M NaCl, 10% V/V glycerol, 0.04% Triton X-100, 5 mM EDTA, 5 MM Na^+ vanadate and […] Na^+ pyrophosphate. Cell lysates were then added to an ELISA plate coated with an anti-PDGF receptor antibody (Genzyme). ELISA plates were coated at […] of antibody/well in […] of PBS for 18 hours at 4° C. prior to the addition of the lysate.
The lysate was incubated in the coated plates for 1 hour and then washed four times in TBST (35 mM Tris-HCl pH 7.0, 0.15 M NaCl, 0.1% Triton X-100). Anti-phosphotyrosine antibody ([…] in PBS) was added and the mixture was incubated for 30 minutes at room temperature. The wells were then washed four times in TBST, a secondary antibody conjugated to POD (TAGO) was added to each well, and the treated wells were incubated for 30 minutes at room temperature. The wells were then washed four times in TBST, ABTS/H2 O2 solution was added to each well and the wells were incubated for two minutes. Absorbance was then measured at 410 nm.

With `N#CC(=Cc1c[nH]c2ccccc12)C(N)=C(C#N)C#N` [Compound D12] the IC50 was 60 µM.

Same assay, conditions: 100 ng/ml PDGF-BB; read-out: ELISA P-TYR U1242 IC50

`CC(NC(=O)C(C#N)=Cc1ccc2[nH]ccc2c1)c1ccccc1` (single isomer, unassigned) [Compound I10] and `N#CC(C(=O)Nc1ccc(C(F)(F)F)cc1)=C(O)C(c1ccccc1)c1ccccc1` [Compound B19, 2-Butenamide, 2-cyano-3-hydroxy-4,4-diphenyl-N-[(4-trifluoromethyl)phenyl]] are within 1.5-fold of each other in IC50: 90 µM for the first, 100 µM for the second.

`CC(O)=C(C#N)C(=O)Nc1ccc([N+](=O)[O-])cc1` [Compound B10] and `CC(C)CC(O)=C(C#N)C(=O)Nc1ccc(C(F)(F)F)cc1` [Compound B18, 2-Hexeneamide, 2-cyano-3-hydroxy-5-methyl-N-[(4-trifluoromethyl)phenyl]] are within 1.5-fold of each other in IC50: 180 µM for the first, 160 µM for the second.

`N#CC(C(=O)Nc1ccc(C(F)(F)F)cc1)=C(O)c1ccc(F)cc1` [Compound B12, 2-Propenamide, 2-cyano-3-hydroxy-3-(4-fluorophenyl)-N-[(4-trifluoromethyl)phenyl]] and `N#CC(C(=O)Nc1ccc(C(F)(F)F)cc1)=C(O)Cc1ccccc1` [Compound B17, 2-Butenamide, 2-cyano-3-hydroxy-4-phenyl-N-[(4-trifluoromethyl)phenyl]] are within 1.5-fold of each other in IC50: 100 µM for the first, 125 µM for the second.

`N#CC(C(=O)Nc1ccc(C(F)(F)F)cc1)=C(O)C1CCCCC1` [Compound B13, 2-Propenamide, 2-cyano-3-hydroxy-3-cyclohexyl-N-[(4-trifluoromethyl)phenyl]] and `CC1(C)C(C(O)=C(C#N)C(=O)Nc2ccc(C(F)(F)F)cc2)C1(C)C` [Compound B14, 2-cyano-3-hydroxy-3-(2,2,3,3-tetramethylcyclopropyl)-propanol-4-(trifluoromethyl)anilide] are the same in IC50: 180 µM for the first, 180 µM for the second.

First: N#CC(C(=O)Nc1ccc(C(F)(F)F)cc1)=C(O)c1c(F)c(F)c(F)c(F)c1F [Compound B15, 2-Propenamide, 2-cyano-3-hydroxy-3-(pentafluorophenyl)-N-[(4-trifluoromethyl)phenyl]]
Second: CN(C)c1ccc(NC(=O)C(=O)NN=Cc2ccc(O)c(O)c2)cc1 [Compound E10]
The IC50 of the first is 2.7-fold higher: 120 µM for the first, 45 µM for the second.

Going from `N#CC(=Cc1ccc(O)c(O)c1)c1[nH]nc(N)c1C#N` [Compound C11] to `N#CCCn1cc(C=C(C#N)C(=O)c2ccc(O)c(O)c2)c2ccccc21` [Compound D17], the IC50 rises from 70 µM to > 100 µM.

First: CN(C)CCCn1cc(C=C(C#N)C(=O)c2ccc(O)c(O)c2)c2ccccc21 [Compound D16]
Second: COc1ccccc1NC(=O)C(=O)NN=Cc1ccc(O)c(O)c1 [Compound E13]
The IC50 of the first is lower: 50 µM for the first, > 100 µM for the second.

Compared with `O=C(NN=Cc1ccc(O)c(O)c1)C(=O)Nc1cccc(O)c1` [Compound E11], `O=C(NN=Cc1ccccc1O)C(=O)Nc1cccc(O)c1` [Compound E12] is 2-fold higher in IC50: 90 µM for the first, 180 µM for the second.

Going from `O=C(NN=Cc1ccc(O)cc1)C(=O)Nc1cccc([N+](=O)[O-])c1` [Compound E16] to `O=c1c2ccccc2nc2n1CCOC2=Cc1cccc(O)c1` [Compound F12], the IC50 falls from 125 µM to 70 µM (1.8-fold).

Compared with `O=c1c2ccccc2nc2n1CCOC2=Cc1ccc(O)c(O)c1` [Compound F11], `Oc1cc2ncc(-c3ccccc3)nc2cc1O` [Compound G20] is higher in IC50: 100 µM for the first, > 100 µM for the second. The first is the more potent here.

`c1csc(-c2cnc3ccccc3n2)c1` [Compound G15] and `Cc1ccc2ncc(-c3ccccc3)nc2c1` [Compound G19] are within 1.5-fold of each other in IC50: 100 µM for the first, 90 µM for the second.

`COc1cc2nc(-c3ccccc3)cnc2cc1O` [Compound G17] gave an IC50 of 100 µM.
